Assay results: publication PMC10946806, “Development of Bifunctional, Raman Active Diyne‐Girder Stapled α‐Helical Peptides” (Chemistry (Weinheim an Der Bergstrasse, Germany), 2023)
Each block holds one molecule with its values, some of them ahead of it. Positions of bridges follow the written chain, without caps; N, C: chain ends. Non-standard residues stand in square brackets, D forms with d. Residues, ends and D or L forms follow the SMILES beside them. *: point of attachment. FITC = O=C1OC2(c3ccc(O)cc3Oc3cc(O)ccc32)c2ccc(NC(=S)*)cc21; R8 = C=CCCCCCC[C@@](C)(N)C(=O)O; S5 = C=CCCC[C@](C)(N)C(=O)O; Nle = CCCC[C@H](N)C(=O)O; Ahx = NCCCCCC(=O)O

How the values were obtained:
[1] = Circular dichroism (CD) spectroscopy, % helicity; assay type: physicochemical; settings: for percentage helicity at 222 nm from mean residue ellipticity: peptide 50 μM in PBS pH 7.4, room temperature, MRE at 222 nm converted by Equation S2; for percentage helicity (in words): peptide 50 μM in PBS pH 7.4, 222 nm
Experimental: Circular dichroism (CD): CD spectra were obtained using a JASCO J-810 CD spectrometer. […] Percentage helicities can be calculated for α-helical peptides. […] […] Equation S1. MRE calculation. […] To 100 μL of peptide solution was added 100 11

[2] = on-resin Glaser oxidative coupling of two terminal alkynes (i,i+7 side chains) to 1,3-diyne; CuCl 5 eq, 4,4'-bis(hydroxymethyl)-2,2'-bipyridine 7.5 eq, DIPEA 20 eq, microwave; settings: the molecule shown is the open-chain precursor, DMF, 10.0 mM, 60.0 °C, 3.0 h

Molecule: CCCC[C@@H]1NC(=O)[C@H](CCCNC(=N)N)NC(=O)[C@H](C)NC(=O)[C@H](Cc2ccc(O)cc2)NC(=O)[C@](C)(NC(=O)[C@H](CCCCN)NC(=O)[C@H](C)NC(=O)CCCCCNC(=S)Nc2ccc3c(c2)C(=O)OC32c3ccc(O)cc3Oc3cc(O)ccc32)CCCCCC/C=C\CCC[C@@](C)(C(=O)N[C@@H](CC(C)C)C(=O)N[C@@H](CCCCN)C(=O)N[C@@H](CCC(=O)O)C(=O)N[C@H](C(=O)N[C@@H](C)C(=O)N[C@@H](CCCCN)C(N)=O)[C@@H](C)CC)NC(=O)[C@H](CCCNC(=N)N)NC(=O)CNC1=O ({FITC-Ahx}-AK[R8]YAR[Nle]GR[S5]LKEIAK-NH2; staple (Z) 3-10)
% peptide remaining after 4 h with chymotrypsin: > 92%

Molecule: CCCC[C@@H]1NC(=O)[C@H](CCCNC(=N)N)NC(=O)[C@H](C)NC(=O)[C@H](Cc2ccc(O)cc2)NC(=O)[C@](C)(NC(=O)[C@H](CCCCN)NC(=O)[C@H](C)NC(=O)CCCCCNC(=S)Nc2ccc3c(c2)C(=O)OC32c3ccc(O)cc3Oc3cc(O)ccc32)CCCCCC/C=C/CCC[C@@](C)(C(=O)N[C@@H](CC(C)C)C(=O)N[C@@H](CCCCN)C(=O)N[C@@H](CCC(=O)O)C(=O)N[C@H](C(=O)N[C@@H](C)C(=O)N[C@@H](CCCCN)C(N)=O)[C@@H](C)CC)NC(=O)[C@H](CCCNC(=N)N)NC(=O)CNC1=O ({FITC-Ahx}-AK[R8]YAR[Nle]GR[S5]LKEIAK-NH2; staple (E) 3-10)
% peptide remaining after 4 h with chymotrypsin: > 92%

Molecule: C#CCCCCC[C@](C)(NC(=O)[C@H](CCCCNC(=O)OC(C)(C)C)NC(=O)[C@H](C)NC(=O)CCCCCNC(=O)OCC1c2ccccc2-c2ccccc21)C(=O)N[C@@H](Cc1ccc(OC(C)(C)C)cc1)C(=O)N[C@@H](C)C(=O)N[C@@H](CCCNC(=N)NS(=O)(=O)c1c(C)c(C)c2c(c1C)CC(C)(C)O2)C(=O)N[C@@H](CCCC)C(=O)NCC(=O)N[C@@H](CCCNC(=N)NS(=O)(=O)c1c(C)c(C)c2c(c1C)CC(C)(C)O2)C(=O)N[C@@](C)(CCCCCC#C)C(=O)N[C@@H](CC(C)C)C(=O)N[C@@H](CCCCNC(=O)OC(C)(C)C)C(=O)N[C@@H](CCC(=O)OC(C)(C)C)C(=O)N[C@H](C(=O)N[C@@H](C)C(=O)N[C@@H](CCCCNC(=O)OC(C)(C)C)C(N)=O)[C@@H](C)CC
ring closure, conversion by HPLC ([2]; 36-membered ring): 100%

Molecule: C#CCCCCCC[C@@](C)(NC(=O)[C@H](CCCNC(=N)NS(=O)(=O)c1c(C)c(C)c2c(c1C)CC(C)(C)O2)NC(=O)CNC(=O)[C@H](CCCC)NC(=O)[C@H](CCCNC(=N)NS(=O)(=O)c1c(C)c(C)c2c(c1C)CC(C)(C)O2)NC(=O)[C@H](C)NC(=O)[C@H](Cc1ccc(OC(C)(C)C)cc1)NC(=O)[C@](C)(CCCCCCC#C)NC(=O)[C@H](CCCCNC(=O)OC(C)(C)C)NC(=O)[C@H](C)NC(=O)CCCCCNC(=O)OCC1c2ccccc2-c2ccccc21)C(=O)N[C@@H](CC(C)C)C(=O)N[C@@H](CCCCNC(=O)OC(C)(C)C)C(=O)N[C@@H](CCC(=O)OC(C)(C)C)C(=O)N[C@H](C(=O)N[C@@H](C)C(=O)N[C@@H](CCCCNC(=O)OC(C)(C)C)C(N)=O)[C@@H](C)CC
ring closure, conversion by HPLC ([2]; 38-membered ring): 68%

Molecule: CCCC[C@@H]1NC(=O)[C@H](CCCNC(=N)N)NC(=O)[C@H](C)NC(=O)[C@H](Cc2ccc(O)cc2)NC(=O)[C@@](C)(NC(=O)[C@H](CCCCN)NC(=O)[C@H](C)NC(=O)CCCCCNC(=S)Nc2ccc3c(c2)C(=O)OC32c3ccc(O)cc3Oc3cc(O)ccc32)CCCCCC#CC#CCCCCC[C@@](C)(C(=O)N[C@@H](CC(C)C)C(=O)N[C@@H](CCCCN)C(=O)N[C@@H](CCC(=O)O)C(=O)N[C@H](C(=O)N[C@@H](C)C(=O)N[C@@H](CCCCN)C(N)=O)[C@@H](C)CC)NC(=O)[C@H](CCCNC(=N)N)NC(=O)CNC1=O
% peptide remaining after 4 h with chymotrypsin: > 92%

Molecule: CCCC[C@@H]1NC(=O)[C@H](CCCNC(=N)N)NC(=O)[C@H](C)NC(=O)[C@H](Cc2ccc(O)cc2)NC(=O)[C@@H](NC(=O)[C@H](CCCCN)NC(=O)[C@H](C)NC(=O)CCCCCNC(=S)Nc2ccc3c(c2)C(=O)OC32c3ccc(O)cc3Oc3cc(O)ccc32)CCCCCC#CC#CCCCCC[C@@H](C(=O)N[C@@H](CC(C)C)C(=O)N[C@@H](CCCCN)C(=O)N[C@@H](CCC(=O)O)C(=O)N[C@H](C(=O)N[C@@H](C)C(=O)N[C@@H](CCCCN)C(N)=O)[C@@H](C)CC)NC(=O)[C@H](CCCNC(=N)N)NC(=O)CNC1=O
% peptide remaining after 4 h with chymotrypsin: > 92%

Now from value to molecule:

percentage helicity at 222 nm from mean residue ellipticity [1]: 40%
Molecule: FTU-Ahx-AKR7YAR(Nle)GRR7LKEIAK-NH2 (sidechain bridge or staple) [compound 30, diyne-girder stapled T-STAR peptide, C14 bridge, RR]

percentage helicity at 222 nm from mean residue ellipticity [1]: 54%
Molecule: FTU-Ahx-AKS7YAR(Nle)GRR7LKEIAK-NH2 (sidechain bridge or staple) [compound 32, diyne-girder stapled T-STAR peptide, C14 bridge, SR]

percentage helicity (in words) [1]: high
Molecule: FTU-Ahx-AKS8YAR(Nle)GRS8LKEIAK-NH2 (sidechain bridge or staple) [compound 33, diyne-girder stapled T-STAR peptide, C16 bridge, SS]

percentage helicity at 222 nm from mean residue ellipticity [1]: 33%
Molecule: FTU-Ahx-AKR8YAR(Nle)GRR8LKEIAK-NH2 (sidechain bridge or staple) [compound 34, diyne-girder stapled T-STAR peptide, C16 bridge, RR]

percentage helicity (in words) [1]: high
Molecule: FTU-Ahx-AKR8YAR(Nle)GRS8LKEIAK-NH2 (sidechain bridge or staple) [compound 35, diyne-girder stapled T-STAR peptide, C16 bridge, RS]

percentage helicity (in words) [1]: high
Molecule: FTU-Ahx-AKS8YAR(Nle)GRR8LKEIAK-NH2 (sidechain bridge or staple) [compound 36, diyne-girder stapled T-STAR peptide, C16 bridge, SR]
